The experiment has as its target T1, carboxypeptidase T (CPT) (Thermoactinomyces vulgaris, UniProt P29068).
T1 construct: mature enzyme; one molecule in asymmetric unit
As to the kind of experiment: inhibition of tripeptide hydrolysis, integral kinetic curves at […] nm. Format: biochemical.

The values below come from paper PMC6937156, “The nature of the ligand’s side chain interacting with the S1'-subsite of metallocarboxypeptidase T (from Thermoactinomyces vulgaris) determines the geometry of the tetrahedral transition complex” (PLoS ONE, 2019).

For orientation: Ki means a measure of affinity in units of concentration, obtained from inhibition or displacement. Low readings indicate tighter binding, high ones weaker binding.

With `N=C(N)NCCC[C@H](NS(N)(=O)=O)C(=O)O` [SArg, N-sulfamoyl-L-arginine], affinity was put at a Ki of 340 µM.

With `NS(=O)(=O)N[C@@H](CCC(=O)O)C(=O)O` [SGlu, N-(aminosulfonyl)-L-glutamic acid], affinity was put at a Ki of 3090 µM.

The compound `CC(C)C[C@H](NS(N)(=O)=O)C(=O)O` [SLeu, N-(aminosulfonyl)-L-leucine] showed a Ki of 8.94 µM.

In turn, `NS(=O)(=O)N[C@@H](Cc1ccccc1)C(=O)O` [SPhe, N-sulfamoyl-L-phenylalanine] gave an inhibition constant Ki of 35.1 µM.
